Source: US4826531A (priority 1986, dated 1989)

Tests used:
[1] = test system: CERCOSPORA ARACHIDICOLA (PEANUT); assay: foliar fungal disease control test (Table III); assay type: in vivo; settings: 100 ppm foliar spray plus root drench ca. 40 ppm a.i./dry soil; 1-2 days before inoculation
Description: (§1) The compounds were tested against a variety of foliar fungal diseases of plants. The technique employed was as follows.
(§2) The plants were grown in John Innes Potting Compost (No 1 or 2) in 4 cm diameter minipots. The test compounds were formulated either by bead milling with aqueous Dispersol T or as a solution in acetone or acetone/ethanol which was diluted to the required concentration immediately before use. For the foliage diseases, the formulations (100 ppm active ingredient) were sprayed on to the foliage and applied to the roots of the plants in the soil. The sprays were applied to maximum retention and the root drenches to a final concentration equivalent to approximately 40 ppm a.i./dry soil. Tween 20, to give a final concentration of 0.05%, was added when the sprays were applied to cereals.
(§3) For most of the tests the compound was applied to the soil (roots) and to the foliage (by spraying) one or two days before the plant was inoculated with the disease. An exception was the test on Erysiphe graminis in which the plants were inoculated 24 hours before treatment. Foliar pathogens were applied by spray as spore suspensions onto the leaves of test plants. After inoculation, the plants were put into an appropriate environment to allow infection to proceed and then incubated until the disease was ready for assessment. The period between inoculation and assessment varied from four to fourteen days according to the disease and environment.
(§4) The disease control was recorded by the following grading: […]

[2] = test system: ERYSIPHE GRAMINIS (BARLEY); assay: foliar fungal disease control test (Table III); assay type: in vivo; settings: 100 ppm foliar spray plus root drench ca. 40 ppm a.i./dry soil; inoculated 24 hours before treatment
Description: as §1, §2, §3, §4

[3] = test system: PUCCINIA RECONDITA (WHEAT); assay: foliar fungal disease control test (Table III); assay type: in vivo; settings: 100 ppm foliar spray plus root drench ca. 40 ppm a.i./dry soil; 1-2 days before inoculation
Description: as §1, §2, §3, §4

[4] = test system: […] (RICE); assay type: in vivo, Pyricularia oryzae; settings: 100 ppm foliar spray plus root drench ca. 40 ppm a.i./dry soil; 1-2 days before inoculation
[5] = test system: VENTURIA INAEQUALS (APPLE); assay: foliar fungal disease control test (Table III); assay type: in vivo, Venturia inaequalis; settings: 100 ppm foliar spray plus root drench ca. 40 ppm a.i./dry soil; 1-2 days before inoculation
Description: as §1, §2, §3, §4

[6] = test system: […] (VINE); assay: foliar fungal disease control test (Table III); assay type: in vivo, Plasmopara viticola; settings: 100 ppm foliar spray plus root drench ca. 40 ppm a.i./dry soil; 1-2 days before inoculation
Description: as §1, §2, §3, §4

[7] = test system: PH[…] (TOMATO); assay type: in vivo, Phytophthora infestans; settings: for disease control grading, PH[…] (TOMATO): 100 ppm foliar spray plus root drench ca. 40 ppm a.i./dry soil, 1-2 days before inoculation
[8] = test system: Meloidogyne incognita (tomato root-knot eelworm larvae); assay: nematocidal activity
[9] = test system: Tomato; assay: whole plant screen for plant growth regulating activity; assay type: in vivo, Tomato (Ailsa Craig)
Description: (§5) These compounds were tested on a whole plant screen for plant growth regulating activity against six species of plant. The plant species used in this screen are presented in Table IV with the leaf stage at which they were sprayed.
(§6) A formulation of each chemical was applied at 4000 ppm (4 kg/ha in a 1000 l/ha field volume) using a tracksprayer and a SS8004E (Teejet) nozzle. Additional tests were done on tomatoes at 2000 and 500 ppm.
(§7) After spraying, the plants were grown in a glasshouse with 25° C. day/22° C. night temperatures. The exceptions to this were the temperate cereals wheat and barley, which were grown in 13°-16° C. day/11°-13° C. night temperatures. Supplementary lighting was supplied when necessary to provide an average photoperiod of 16 hours (14 hours minimum).
(§8) After 2-6 weeks in the glasshouse, depending on species and time of year, the plants were visually asessed for morphological characteristics against a control plant sprayed with a blank formulation.

[10] = test system: Diabrotica balteata (root worm larvae); assay: insecticidal activity
[11] = test system: Barley; assay: whole plant screen for plant growth regulating activity; assay type: in vivo, Barley (Atem); settings: 4000 ppm (4 kg/ha), assessed after 2-6 weeks
Description: as §5, §6, §7, §8

SMILES	disease control grading, CERCOSPORA ARACHIDICOLA (PEANUT) [1]	disease control grading, ERYSIPHE GRAMINIS (BARLEY) [2]	disease control grading, PUCCINIA RECONDITA (WHEAT) [3]	disease control grading, […] (RICE) [4]	disease control grading, VENTURIA INAEQUALS (APPLE) [5]	disease control grading, […] (VINE) [6]	disease control grading, PH[…] (TOMATO) [7]	activity against Meloidogyne incognita [8]	disease control grading, PH[…] (TOMATO), root drench only ([7]; 100 ppm root drench only)	plant growth regulating effect, TO+ ([9]; 500 ppm) [G]	activity against Diabrotica balteata [10]	plant growth regulating effect, TO ([9]; 4000 ppm (4 kg/ha), assessed after 2-6 weeks) [GAT]	plant growth regulating effect, BR [11] [T]
CO/C=C(/C(=O)OC)c1cccnc1OCc1ccccc1 [Compound 66]	1 (26-59% of disease on untreated plants)	4	0 (60-100% of disease on untreated plants)	0 (60-100% of disease on untreated plants)	4	2 (6-25% of disease on untreated plants)	0 (60-100% of disease on untreated plants)	–	–	–	–	–	–
CO/C=C(/C(=O)OC)c1ncccc1Oc1ccccc1 [Compound 1, (E)-methyl 2-(3'-phenoxypyrid-2'-yl)-3-methoxyacrylate]	4	3 (trace-5% of disease on untreated plants)	0 (60-100% of disease on untreated plants)	0 (60-100% of disease on untreated plants)	3 (trace-5% of disease on untreated plants)	0 (60-100% of disease on untreated plants)	0 (60-100% of disease on untreated plants)	–	–	–	–	–	–
CO/C=C(/C(=O)OC)c1cccnc1Oc1ccc(Br)cc1 [Compound 18]	4	4	1 (26-59% of disease on untreated plants)	0 (60-100% of disease on untreated plants)	4	4	0 (60-100% of disease on untreated plants)	–	–	–	–	–	–
CO/C=C(/C(=O)OC)c1ccccn1 [Compound 106]	0 (60-100% of disease on untreated plants)	4	0 (60-100% of disease on untreated plants)	0 (60-100% of disease on untreated plants)	0 (60-100% of disease on untreated plants)	0 (60-100% of disease on untreated plants)	–	–	–	–	–	–	–
CO/C=C(/C(=O)OC)c1cccnc1Oc1ccccc1 [Compound 15, (E)-methyl-2-(2'-phenoxypyrid-3'-yl)-3-methoxyacrylate]	4	4	4	4	4	4	–	active	4	–	–	–	–
CO/C=C(/C(=O)OC)c1cccnc1Oc1cccc(Cl)c1 [Compound 23]	4	4	4	4	4	4	4	–	–	2	active	–	–
CO/C=C(/C(=O)OC)c1cccnc1Oc1cc(Cl)cc(Cl)c1 [Compound 60]	4	4	4	4	4	4	4	–	–	–	–	–	–
CO/C=C(/C(=O)OC)c1cccnc1Oc1ccc(F)cc1F [Compound 87]	4	4	3 (trace-5% of disease on untreated plants)	4	4	0 (60-100% of disease on untreated plants)	0 (60-100% of disease on untreated plants)	–	–	–	–	–	–
CO/C=C(/C(=O)OC)c1cccnc1Oc1ccc(C)cc1 [Compound 19]	4	4	4	4	4	4	0 (60-100% of disease on untreated plants)	–	–	–	–	2	–
CO/C=C(/C(=O)OC)c1cccnc1Oc1ccc(C(F)(F)F)cc1 [Compound 21]	4	4	4	0 (60-100% of disease on untreated plants)	4	4	3 (trace-5% of disease on untreated plants)	–	–	–	–	–	–
CO/C=C(/C(=O)OC)c1cccnc1Oc1ccc(OC)cc1 [Compound 20]	4	4	4	4	4	4	0 (60-100% of disease on untreated plants)	–	–	–	–	–	–
CO/C=C(/C(=O)OC)c1cccnc1Oc1cccc(F)c1 [Compound 57]	4	4	4	4	4	4	3 (trace-5% of disease on untreated plants)	–	–	–	–	–	–
CO/C=C(/C(=O)OC)c1cccnc1Oc1cccc(C)c1 [Compound 58]	4	4	4	4	4	4	3 (trace-5% of disease on untreated plants)	–	–	–	–	–	–
CO/C=C(/C(=O)OC)c1ccncc1Oc1ccccc1 [Compound 43, (E)-methyl-2-(3'-phenoxypyrid-4'-yl)-3-methoxyacrylate]	–	–	–	–	–	–	–	–	–	–	–	–	2
CO/C=C(/C(=O)OC)c1cccnc1Oc1ccc(Cl)cc1 [Compound 16]	4	4	4	4	4	4	3 (trace-5% of disease on untreated plants)	–	–	–	–	–	–
CO/C=C(/C(=O)OC)c1cccnc1Oc1cc(F)cc(F)c1 [Compound 88]	3 (trace-5% of disease on untreated plants)	4	4	2 (6-25% of disease on untreated plants)	4	4	4	–	–	–	–	–	–
